Reference: publication PMC7782793, “Hydroxamic acid-modified peptide microarrays for profiling isozyme-selective interactions and inhibition of histone deacetylases” (Nature Communications, 2021)
Where “and” joins values, the source holds several entries; their conditions need not be identical. Identical values can stand only once. Marks after values point to notes of the source that are not given here. Non-standard residues stand in square brackets, D forms with d. Residues, ends and D or L forms follow the SMILES beside them. *: point of attachment. Asu = N[C@@H](CCCCCC(=O)O)C(=O)O; NHOH = ON*

What was measured:
HDAC8 = molecular target: T1, HDAC8 (Homo sapiens, UniProt Q9BY41); assay: HDAC inhibition assay (fluorogenic, Ac-Leu-Gly-Lys(Tfa)-AMC); type: biochemical; details: for HDAC8 dose-response data (relative enzyme activity, replicate values), Fig. 6 + S. Fig. 10: two replicate columns per inhibitor; for HDAC8 dose-response data (relative enzyme activity), Fig. 6 + S. Fig. 10: duplicate columns
T1 construct: HDAC8 (full length, C-terminal His tag, BPS Bioscience, cat. #: 50008); purchased BPS Bioscience 50008
T1 sequence (Q9BY41 1-377): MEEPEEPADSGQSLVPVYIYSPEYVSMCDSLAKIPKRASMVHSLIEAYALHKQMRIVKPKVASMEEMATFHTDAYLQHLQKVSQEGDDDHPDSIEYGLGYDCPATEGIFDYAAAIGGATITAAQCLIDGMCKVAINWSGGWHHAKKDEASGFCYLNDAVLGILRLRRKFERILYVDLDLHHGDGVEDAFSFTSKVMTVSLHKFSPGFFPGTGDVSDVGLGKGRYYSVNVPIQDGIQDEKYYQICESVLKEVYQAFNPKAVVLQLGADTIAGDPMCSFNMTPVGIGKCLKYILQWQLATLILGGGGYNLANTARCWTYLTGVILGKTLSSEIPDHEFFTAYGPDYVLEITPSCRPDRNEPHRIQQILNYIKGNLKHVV

HDAC2 [1] = molecular target: T2, HDAC2 (Homo sapiens, UniProt Q92769); assay: HDAC inhibition assay (fluorogenic, Ac-Leu-Gly-Lys(Ac)-AMC); type: biochemical; details: for HDAC2 dose-response data (relative enzyme activity), Fig. 6 + S. Fig. 10: duplicate columns
T2 construct: HDAC2 (full length, C-terminal His tag, BPS Bioscience, cat. #: 50002); purchased BPS Bioscience 50002
T2 sequence (Q92769 whole entry): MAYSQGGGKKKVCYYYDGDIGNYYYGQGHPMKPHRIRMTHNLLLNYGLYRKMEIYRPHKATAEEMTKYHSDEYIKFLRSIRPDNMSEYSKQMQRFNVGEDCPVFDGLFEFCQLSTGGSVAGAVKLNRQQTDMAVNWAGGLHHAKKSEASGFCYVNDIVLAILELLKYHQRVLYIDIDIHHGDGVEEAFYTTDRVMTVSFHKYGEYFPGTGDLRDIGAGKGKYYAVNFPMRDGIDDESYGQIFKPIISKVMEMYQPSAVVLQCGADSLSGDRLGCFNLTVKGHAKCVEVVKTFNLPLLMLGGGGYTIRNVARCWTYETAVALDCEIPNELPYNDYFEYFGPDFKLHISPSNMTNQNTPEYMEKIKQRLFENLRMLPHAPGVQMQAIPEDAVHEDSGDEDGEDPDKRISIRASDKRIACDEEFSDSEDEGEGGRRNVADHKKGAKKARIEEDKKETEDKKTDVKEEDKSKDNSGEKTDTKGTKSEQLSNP

HDAC3/NCoR2 [2] = molecular target: T3, HDAC3/NCoR2 (Homo sapiens, UniProt O15379); assay: as above; type: biochemical; details: for HDAC3 dose-response data (relative enzyme activity), Fig. 6 + S. Fig. 10: duplicate columns
T3 construct: HDAC3/NCoR2 (full length, C-terminal His tag, NCoR2 N-terminal GST tag); purchased BPS Bioscience 50003
T3 sequence (O15379 whole entry): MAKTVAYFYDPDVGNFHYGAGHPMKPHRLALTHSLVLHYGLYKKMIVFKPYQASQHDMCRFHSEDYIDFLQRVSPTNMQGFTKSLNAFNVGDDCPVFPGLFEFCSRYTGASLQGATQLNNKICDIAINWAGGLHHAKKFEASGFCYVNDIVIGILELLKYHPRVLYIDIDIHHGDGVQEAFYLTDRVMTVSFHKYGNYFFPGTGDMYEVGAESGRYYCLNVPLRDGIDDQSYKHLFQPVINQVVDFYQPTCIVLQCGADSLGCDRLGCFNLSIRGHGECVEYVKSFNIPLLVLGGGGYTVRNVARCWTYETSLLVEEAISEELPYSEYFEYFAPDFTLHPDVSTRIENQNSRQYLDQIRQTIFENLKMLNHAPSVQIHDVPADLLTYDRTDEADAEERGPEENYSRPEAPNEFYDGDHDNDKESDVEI
T3 sequence (Q9Y618 389-480 partner limits assumed): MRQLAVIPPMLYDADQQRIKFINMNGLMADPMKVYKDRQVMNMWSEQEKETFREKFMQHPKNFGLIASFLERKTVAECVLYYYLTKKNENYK

HDACs 1‒3 and 8 = assay: HDAC inhibition assays, statements across several class I isozymes; type: biochemical, human; details: resynthesized peptides, from Ki
HDAC1 [3] = molecular target: T4, HDAC1 (Homo sapiens, UniProt Q13547); assay: HDAC inhibition assay (fluorogenic, Ac-Leu-Gly-Lys(Ac)-AMC); type: biochemical; details: for HDAC1 dose-response data (relative enzyme activity), Fig. 6 + S. Fig. 10: duplicate columns
T4 construct: HDAC1 (full length, C-terminal His tag, C-terminal FLAG tag, BPS Bioscience, cat. #: 50051); FLAG (C); purchased BPS Bioscience 50051
T4 sequence (Q13547 whole entry): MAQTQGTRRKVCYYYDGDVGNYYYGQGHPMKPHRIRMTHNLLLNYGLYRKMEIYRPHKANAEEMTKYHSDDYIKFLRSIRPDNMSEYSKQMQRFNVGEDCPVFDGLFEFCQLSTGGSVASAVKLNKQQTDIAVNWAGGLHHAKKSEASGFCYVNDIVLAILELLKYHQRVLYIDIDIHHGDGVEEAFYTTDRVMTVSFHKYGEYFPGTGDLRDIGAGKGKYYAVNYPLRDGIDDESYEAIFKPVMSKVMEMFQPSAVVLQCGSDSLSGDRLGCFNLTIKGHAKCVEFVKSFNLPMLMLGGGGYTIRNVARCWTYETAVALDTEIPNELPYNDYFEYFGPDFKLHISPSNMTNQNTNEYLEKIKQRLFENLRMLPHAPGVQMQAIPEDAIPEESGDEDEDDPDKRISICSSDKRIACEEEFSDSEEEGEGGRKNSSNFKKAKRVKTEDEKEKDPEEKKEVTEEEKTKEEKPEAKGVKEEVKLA

HDAC2 [4] = molecular target: T2, HDAC2; assay: Recombinant HDAC µSPOT microarray binding assay
Procedure: Experiments were performed twice, data were obtained with Array Analyze software (Active Motif), and data analysis and representation were performed with the GraphPad Prism 7 software. Outliers were curated manually and data were fitted to nonlinear regression [log(agonist) vs. response—variable slope (four parameters)]. […] Non-sigmoidal curves were denoted as not determined (N.D.) The pEC50 values were determined as the concentration of HDAC enzyme required for half-maximal binding signal.

HDAC1 [5] = molecular target: T4, HDAC1; assay: Recombinant HDAC µSPOT microarray binding assay
HDAC3/NCoR2 [6] = molecular target: T3, HDAC3/NCoR2; assay: Recombinant HDAC µSPOT microarray binding assay
[7] = log[inhibitor(M)] -10,5850266520292*, whole line marked with asterisks

For `CC(=O)N[C@@H](CC(C)C)C(=O)NCC(=O)N[C@@H](CCCCN)C(=O)NCC(=O)NCC(=O)N[C@@H](C)C(=O)N[C@@H](CCCCCC(=O)NO)C(=O)N[C@@H](CCCNC(=N)N)C(=O)N[C@@H](Cc1c[nH]cn1)C(=O)N[C@@H](CCCNC(=N)N)C(=O)N[C@@H](CCCCN)C(=O)N[C@H](C(=O)N[C@@H](CC(C)C)C(=O)N[C@@H](CCCNC(=N)N)C(=O)N[C@@H](CC(=O)O)C(=O)N[C@@H](CC(N)=O)C(=O)N[C@@H](Cc1c[nH]c2ccccc12)C(N)=O)C(C)C` [16a] (Ac-LGKGGA[Asu](NHOH)RHRKVLRDNW-NH2), the Ki (HDAC8) was 3960 ± 30 nM, the “HDAC8 dose-response data (relative enzyme activity, replicate values), Fig. 6 + S. Fig. 10” value (HDAC8; Inhibitor conc [M] -8.49485 (log)) was 105.989 and 103.599 and the “HDAC8 dose-response data (relative enzyme activity, replicate values), Fig. 6 + S. Fig. 10” value (HDAC8; Inhibitor conc [M] -9.19382 (log)) was 103.027 and 101.95. For the same compound, the “HDAC8 dose-response data (relative enzyme activity, replicate values), Fig. 6 + S. Fig. 10” value (HDAC8; Inhibitor conc [M] given as -7.09691 (log)) was 102.108 and 99.2954, the “HDAC8 dose-response data (relative enzyme activity, replicate values), Fig. 6 + S. Fig. 10” value (HDAC8; Inhibitor conc [M] given as -7.79588 (log)) was 104.22 and 100.942 and the “HDAC8 dose-response data (relative enzyme activity, replicate values), Fig. 6 + S. Fig. 10” value (HDAC8; Inhibitor conc [M] given as -9.89279 (log)) was 101.805 and 102.182. The “HDAC8 dose-response data (relative enzyme activity, replicate values), Fig. 6 + S. Fig. 10” value (HDAC8; Inhibitor conc [M] given as -10.585 (log)) was 101,084* and 101,486*, the “HDAC8 dose-response data (relative enzyme activity), Fig. 6 + S. Fig. 10” value (HDAC8; Inhibitor conc [M] -4.30103) was 9.568 and 11.2045 and the “HDAC8 dose-response data (relative enzyme activity), Fig. 6 + S. Fig. 10” value (HDAC8; Inhibitor conc [M] -5) was 36.7683 and 38.5294. For the same compound, the “HDAC8 dose-response data (relative enzyme activity), Fig. 6 + S. Fig. 10” value (HDAC8; Inhibitor conc [M] -5.69897) was 76.0846 and 76.9796, the “HDAC8 dose-response data (relative enzyme activity), Fig. 6 + S. Fig. 10” value (HDAC8; Inhibitor conc [M] -6.39794) was 95.2833 and 94.1446 and the “HDAC2 dose-response data (relative enzyme activity), Fig. 6 + S. Fig. 10” value (HDAC2 [1]; log[inhibitor(M)] -7.79588) was 97.4067 and 92.3774. The “HDAC2 dose-response data (relative enzyme activity), Fig. 6 + S. Fig. 10” value (HDAC2 [1]; [7]) was 106,147* and 102,092*, the Ki (HDAC2 [1]; resynthesized peptide in solution, Cheng-Prusoff, n = 2) was 18.3 ± 0.3 nM and the Ki (HDAC3/NCoR2 [2]) was 2.22 ± 0.02 nM. The “HDAC3 dose-response data (relative enzyme activity), Fig. 6 + S. Fig. 10” value (HDAC3/NCoR2 [2]; log[inhibitor(M)] -4.30103) was 0.4175 and 0.3694, the “HDAC3 dose-response data (relative enzyme activity), Fig. 6 + S. Fig. 10” value (HDAC3/NCoR2 [2]; log[inhibitor(M)] -5) was 1.3048 and 1.953 and the “HDAC3 dose-response data (relative enzyme activity), Fig. 6 + S. Fig. 10” value (HDAC3/NCoR2 [2]; log[inhibitor(M)] -5.69897) was 3.445 and 2.8496. For the same compound, the “HDAC3 dose-response data (relative enzyme activity), Fig. 6 + S. Fig. 10” value (HDAC3/NCoR2 [2]; log[inhibitor(M)] -6.39794) was 11.0647 and 10.1847, the “HDAC3 dose-response data (relative enzyme activity), Fig. 6 + S. Fig. 10” value (HDAC3/NCoR2 [2]; log[inhibitor(M)] -7.09691) was 22.9645 and 23.8522 and the “HDAC3 dose-response data (relative enzyme activity), Fig. 6 + S. Fig. 10” value (HDAC3/NCoR2 [2]; log[inhibitor(M)] -7.79588) was 45.6159 and 50.9763. The “HDAC3 dose-response data (relative enzyme activity), Fig. 6 + S. Fig. 10” value (HDAC3/NCoR2 [2]; log[inhibitor(M)] -8.49485) was 73.3299 and 73.9314, the “HDAC3 dose-response data (relative enzyme activity), Fig. 6 + S. Fig. 10” value (HDAC3/NCoR2 [2]; log[inhibitor(M)] -9.19382) was 93.2672 and 99.1029 and the “HDAC3 dose-response data (relative enzyme activity), Fig. 6 + S. Fig. 10” value (HDAC3/NCoR2 [2]; log[inhibitor(M)] -9.89279) was 96.9207 and 113.14. For the same compound, the “HDAC3 dose-response data (relative enzyme activity), Fig. 6 + S. Fig. 10” value (HDAC3/NCoR2 [2]; [7]) was 99,4259* and 104,433*, the “selectivity against HDACs 1‒3 versus HDAC8” value (HDACs 1‒3 and 8) was “over 100 fold” and the Ki (HDAC1 [3]) was 15.7 ± 0.2 nM. The “HDAC1 dose-response data (relative enzyme activity), Fig. 6 + S. Fig. 10” value (HDAC1 [3]; log[inhibitor(M)] -6.39794) was 20.1917 and 18.7736, the “HDAC1 dose-response data (relative enzyme activity), Fig. 6 + S. Fig. 10” value (HDAC1 [3]; log[inhibitor(M)] -7.09691) was 58.4856 and 48.5202 and the “HDAC1 dose-response data (relative enzyme activity), Fig. 6 + S. Fig. 10” value (HDAC1 [3]; log[inhibitor(M)] -7.79588) was 83.6845 and 79.5184. For the same compound, the “HDAC1 dose-response data (relative enzyme activity), Fig. 6 + S. Fig. 10” value (HDAC1 [3]; log[inhibitor(M)] -8.49485) was 104.354 and 102.416, the “HDAC1 dose-response data (relative enzyme activity), Fig. 6 + S. Fig. 10” value (HDAC1 [3]; log[inhibitor(M)] -9.19382) was 117.259 and 104.242 and the “HDAC1 dose-response data (relative enzyme activity), Fig. 6 + S. Fig. 10” value (HDAC1 [3]; log[inhibitor(M)] -9.89279) was 112.284 and 97.8893. For the same compound, the “HDAC1 dose-response data (relative enzyme activity), Fig. 6 + S. Fig. 10” value (HDAC1 [3]; [7]) was 104,006* and 95,9789*, the EC50 (HDAC2 [4]) was 1.45 nM and the EC50 (HDAC1 [5]) was 12.6 nM. For the same compound, the EC50 (HDAC3/NCoR2 [6]) was 3.24 nM.
